Experimental data as given in ChEMBL document CHEMBL1201862, “PubChem BioAssay data set” (2004).
Calls of active or inactive are those of the source.

Tests used:
[1] = target: DNA dC->dU-editing enzyme APOBEC-3A (Homo sapiens, UniProt P31941); test: Dose Response confirmation of small molecule APOBEC3A DNA Deaminase Inhibitors via a fluorescence-based single-stranded DNA deaminase assay. [Related pubchem assays (depositor defined):AID493011, AID493024]; format: functional
[2] = target: DNA dC->dU-editing enzyme APOBEC-3G (Homo sapiens, UniProt Q9HC16); format: functional;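 also: Dose-response counterscreen measuring inhibition of APOBEC3G DNA deaminase activity, run while confirming APOBEC3A inhibitors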
[3] = target: T1, Carboxy-terminal domain RNA polymerase II polypeptide A small phosphatase 1 (Homo sapiens, UniProt Q9GZU7); test: inhibitors of CTDSP1, concentration-response testing, biochemical assay, absorbance-based, actives from ultra-high-throughput screening (AID 540297); format: functional
T1 sequence (Q9GZU7 whole entry): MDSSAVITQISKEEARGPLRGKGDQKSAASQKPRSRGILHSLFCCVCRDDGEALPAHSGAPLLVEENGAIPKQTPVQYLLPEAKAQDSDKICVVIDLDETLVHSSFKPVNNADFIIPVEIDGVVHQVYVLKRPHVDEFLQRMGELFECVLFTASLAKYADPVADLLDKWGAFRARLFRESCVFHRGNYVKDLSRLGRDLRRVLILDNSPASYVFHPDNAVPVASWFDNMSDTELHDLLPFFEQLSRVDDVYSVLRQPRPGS

[4] = target: T2, Short transient receptor potential channel 4 (Mus musculus, UniProt Q9QUQ5); test: mouse TRPC4 channel inhibitors, dose response, cell-based, HEK293 TRPC4/mu-opioid, Fluo-4 calcium (AID 434942); format: functional;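 also: potency of inhibitors blocking the TRPC4 calcium response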
T2 sequence (Q9QUQ5 whole entry): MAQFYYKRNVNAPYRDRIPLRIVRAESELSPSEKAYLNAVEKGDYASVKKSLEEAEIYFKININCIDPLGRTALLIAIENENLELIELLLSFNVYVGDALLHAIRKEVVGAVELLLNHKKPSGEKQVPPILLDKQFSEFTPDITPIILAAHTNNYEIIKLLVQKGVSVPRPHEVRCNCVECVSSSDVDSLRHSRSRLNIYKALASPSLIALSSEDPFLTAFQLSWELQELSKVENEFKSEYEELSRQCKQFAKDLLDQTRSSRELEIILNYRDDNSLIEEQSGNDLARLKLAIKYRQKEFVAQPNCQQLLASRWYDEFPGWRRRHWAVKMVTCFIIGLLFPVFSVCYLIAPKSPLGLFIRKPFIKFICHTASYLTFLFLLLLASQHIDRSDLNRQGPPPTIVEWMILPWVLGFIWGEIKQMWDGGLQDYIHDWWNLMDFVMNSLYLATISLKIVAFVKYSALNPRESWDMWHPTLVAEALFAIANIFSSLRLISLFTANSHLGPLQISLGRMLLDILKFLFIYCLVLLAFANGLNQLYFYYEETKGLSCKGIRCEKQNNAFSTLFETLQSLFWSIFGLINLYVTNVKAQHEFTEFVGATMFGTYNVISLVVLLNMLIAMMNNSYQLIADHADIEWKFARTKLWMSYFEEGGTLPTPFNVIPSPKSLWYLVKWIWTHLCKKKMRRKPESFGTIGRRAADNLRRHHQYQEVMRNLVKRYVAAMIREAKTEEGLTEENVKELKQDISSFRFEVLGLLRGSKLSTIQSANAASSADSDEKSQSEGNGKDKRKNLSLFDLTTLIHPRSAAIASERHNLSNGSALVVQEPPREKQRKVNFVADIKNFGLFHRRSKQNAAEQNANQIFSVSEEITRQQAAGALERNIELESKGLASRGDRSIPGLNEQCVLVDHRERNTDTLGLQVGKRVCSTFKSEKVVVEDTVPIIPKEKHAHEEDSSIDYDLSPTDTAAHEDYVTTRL

[5] = test system: HEK293; test: NOD1 signaling inhibitors, primary screen, cell-based, luminescence, uHTS (AID 1578); format: functional; settings: Homo sapiens
[6] = test system: HEK293; test: cells; format: functional, cell-based; settings: Homo sapiens
[7] = test system: HEK293; test: cells; format: functional, cell-based; settings: Homo sapiens; remark: listed apart in the source
[8] = target: Nucleotide-binding oligomerization domain-containing protein 2 (Homo sapiens, UniProt Q9HC29); test: NOD2 signaling inhibitors, cell-based, luminescence, uHTS, HEK293 (AID 1566); format: functional
[9] = test system: HEK293; test: NOD2 signaling inhibitors in MDP-stimulated cells, cell-based, uHTS, luminescence (AID 2001); format: functional; settings: Homo sapiens
[10] = test system: HEK293; test: cells; format: functional, cell-based; settings: Homo sapiens; remark: listed apart in the source
[11] = target: Cytochrome P450 3A4 (Homo sapiens, UniProt P08684); settings: Potency;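 also: confirmatory qHTS run detecting inhibitors and substrates of CYP3A4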
[12] = target: T2, Short transient receptor potential channel 4; test: mouse TRPC4 channel activators, dose response, cell-based, HEK293 TRPC4/mu-opioid, Fluo-4 calcium (AID 434937); format: functional
[13] = target: T3, Leucine aminopeptidase (Plasmodium falciparum 3D7, UniProt Q8IL11); test: P. falciparum M17LAP inhibitors, primary screen, biochemical, fluorogenic H-Leu-NHMec substrate, 1536-well (AID 1619); format: functional
T3 sequence (Q8IL11 whole entry): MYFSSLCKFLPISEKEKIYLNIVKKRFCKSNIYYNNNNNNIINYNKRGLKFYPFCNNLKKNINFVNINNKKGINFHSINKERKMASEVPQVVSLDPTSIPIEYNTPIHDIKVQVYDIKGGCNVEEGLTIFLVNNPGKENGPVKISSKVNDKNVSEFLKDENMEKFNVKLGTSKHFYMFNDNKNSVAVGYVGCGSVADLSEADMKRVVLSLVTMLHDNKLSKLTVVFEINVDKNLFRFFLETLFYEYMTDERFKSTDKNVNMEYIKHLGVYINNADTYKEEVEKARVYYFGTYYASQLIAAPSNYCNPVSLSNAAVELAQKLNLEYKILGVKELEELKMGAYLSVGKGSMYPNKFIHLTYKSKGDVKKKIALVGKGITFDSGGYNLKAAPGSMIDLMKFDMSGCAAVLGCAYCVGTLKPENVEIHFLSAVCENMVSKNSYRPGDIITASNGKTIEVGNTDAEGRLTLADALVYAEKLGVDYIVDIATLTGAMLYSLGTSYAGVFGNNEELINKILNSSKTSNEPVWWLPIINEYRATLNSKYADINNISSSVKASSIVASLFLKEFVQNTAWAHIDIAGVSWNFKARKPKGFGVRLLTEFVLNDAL

[14] = target: T4, Aminopeptidase N (Plasmodium falciparum FcB1/Columbia, UniProt O96935); test: P. falciparum M1AAP inhibitors, biochemical, fluorogenic H-Leu-NHMec substrate, 1536-well (AID 1445); parameters: species or system Plasmodium falciparum 3D7, 3D7
T4 sequence (O96935 whole entry): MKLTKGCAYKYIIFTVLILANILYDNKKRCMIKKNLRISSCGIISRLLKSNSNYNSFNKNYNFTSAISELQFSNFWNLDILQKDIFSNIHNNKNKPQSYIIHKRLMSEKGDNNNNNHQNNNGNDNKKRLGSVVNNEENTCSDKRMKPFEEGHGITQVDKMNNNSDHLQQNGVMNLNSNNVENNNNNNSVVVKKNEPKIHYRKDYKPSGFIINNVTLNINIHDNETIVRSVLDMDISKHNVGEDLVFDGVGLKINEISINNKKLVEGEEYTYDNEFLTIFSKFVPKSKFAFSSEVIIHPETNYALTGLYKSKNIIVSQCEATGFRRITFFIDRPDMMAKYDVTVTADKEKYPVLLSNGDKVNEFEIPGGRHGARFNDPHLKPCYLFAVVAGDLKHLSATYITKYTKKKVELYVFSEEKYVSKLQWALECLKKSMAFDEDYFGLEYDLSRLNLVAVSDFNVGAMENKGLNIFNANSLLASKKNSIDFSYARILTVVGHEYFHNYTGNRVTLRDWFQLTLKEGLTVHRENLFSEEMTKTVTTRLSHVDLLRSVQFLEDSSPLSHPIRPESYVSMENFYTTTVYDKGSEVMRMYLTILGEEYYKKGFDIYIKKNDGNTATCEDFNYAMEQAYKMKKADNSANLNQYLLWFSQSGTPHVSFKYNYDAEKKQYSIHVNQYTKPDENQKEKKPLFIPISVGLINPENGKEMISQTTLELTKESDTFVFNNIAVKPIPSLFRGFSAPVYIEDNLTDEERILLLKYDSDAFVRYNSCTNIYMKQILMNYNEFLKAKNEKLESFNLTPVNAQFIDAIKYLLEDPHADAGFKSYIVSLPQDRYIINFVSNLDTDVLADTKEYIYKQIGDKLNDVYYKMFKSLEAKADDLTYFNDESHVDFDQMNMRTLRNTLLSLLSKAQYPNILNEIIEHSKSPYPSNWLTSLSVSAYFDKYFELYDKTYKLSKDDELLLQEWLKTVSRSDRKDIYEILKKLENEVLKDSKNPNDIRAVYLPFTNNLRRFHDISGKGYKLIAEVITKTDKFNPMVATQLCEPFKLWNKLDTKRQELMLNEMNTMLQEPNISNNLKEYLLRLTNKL

[15] = HEp-2 cell cytotoxicity, dose response, cytotoxicity control for RSV inhibitor project, HTS (AID 2410); format: functional; settings: human respiratory syncytial virus
[16] = target: T5, Polyadenylate-binding protein 1 (Homo sapiens, UniProt P11940); test: PABP1 MLLE–PAM2 interaction inhibitors, dose response, miRNA deadenylation inhibitor project, biochemical, fluorescence polarization, Cy5-PAM2 peptide, secondary (AID 602260); format: functional; settings: read-out: IC50_Mean
[17] = target: T5, Polyadenylate-binding protein 1; test: PABP1 MLLE–PAM2 binding inhibitor potency, dose response, biochemical, fluorescence polarization, FITC-PAM2 peptide (AID 602259); format: functional; settings: read-out: IC50_Mean

DNA dC->dU-editing enzyme APOBEC-3G, sequence (Q9HC16 whole entry, the tested form may be a part): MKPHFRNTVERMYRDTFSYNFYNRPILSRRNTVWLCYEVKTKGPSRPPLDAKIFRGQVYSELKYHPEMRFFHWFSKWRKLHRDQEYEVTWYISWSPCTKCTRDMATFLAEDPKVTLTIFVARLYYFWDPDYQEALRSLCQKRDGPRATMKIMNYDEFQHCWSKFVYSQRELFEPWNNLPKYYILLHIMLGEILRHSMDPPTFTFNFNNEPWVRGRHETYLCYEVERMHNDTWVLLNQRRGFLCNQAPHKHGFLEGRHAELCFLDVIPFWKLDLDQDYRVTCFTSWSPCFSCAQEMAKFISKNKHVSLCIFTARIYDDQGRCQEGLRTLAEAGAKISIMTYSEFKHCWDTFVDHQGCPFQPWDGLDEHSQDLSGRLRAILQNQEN
Cytochrome P450 3A4, sequence (P08684 whole entry): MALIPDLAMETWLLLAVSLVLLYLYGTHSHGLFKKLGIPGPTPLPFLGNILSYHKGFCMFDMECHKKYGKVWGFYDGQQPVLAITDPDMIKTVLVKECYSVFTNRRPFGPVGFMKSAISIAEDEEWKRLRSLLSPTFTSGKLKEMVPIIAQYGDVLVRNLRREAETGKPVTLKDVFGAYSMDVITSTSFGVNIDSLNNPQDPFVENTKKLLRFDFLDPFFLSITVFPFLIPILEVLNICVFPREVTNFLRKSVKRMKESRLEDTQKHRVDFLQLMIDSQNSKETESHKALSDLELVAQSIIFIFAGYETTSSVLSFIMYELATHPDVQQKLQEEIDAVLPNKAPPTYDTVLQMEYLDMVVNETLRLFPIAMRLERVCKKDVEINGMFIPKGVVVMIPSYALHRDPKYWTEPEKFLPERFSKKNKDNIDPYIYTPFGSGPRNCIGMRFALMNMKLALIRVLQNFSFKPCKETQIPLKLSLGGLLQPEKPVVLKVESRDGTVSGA
DNA dC->dU-editing enzyme APOBEC-3A, sequence (P31941 whole entry): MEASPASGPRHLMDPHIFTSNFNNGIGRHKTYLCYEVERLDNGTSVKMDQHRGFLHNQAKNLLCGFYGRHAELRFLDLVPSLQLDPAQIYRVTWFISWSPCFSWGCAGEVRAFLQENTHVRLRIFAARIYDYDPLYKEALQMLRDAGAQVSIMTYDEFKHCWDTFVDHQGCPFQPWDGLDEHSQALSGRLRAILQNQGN
Nucleotide-binding oligomerization domain-containing protein 2, sequence (Q9HC29 whole entry, the tested form may be a part): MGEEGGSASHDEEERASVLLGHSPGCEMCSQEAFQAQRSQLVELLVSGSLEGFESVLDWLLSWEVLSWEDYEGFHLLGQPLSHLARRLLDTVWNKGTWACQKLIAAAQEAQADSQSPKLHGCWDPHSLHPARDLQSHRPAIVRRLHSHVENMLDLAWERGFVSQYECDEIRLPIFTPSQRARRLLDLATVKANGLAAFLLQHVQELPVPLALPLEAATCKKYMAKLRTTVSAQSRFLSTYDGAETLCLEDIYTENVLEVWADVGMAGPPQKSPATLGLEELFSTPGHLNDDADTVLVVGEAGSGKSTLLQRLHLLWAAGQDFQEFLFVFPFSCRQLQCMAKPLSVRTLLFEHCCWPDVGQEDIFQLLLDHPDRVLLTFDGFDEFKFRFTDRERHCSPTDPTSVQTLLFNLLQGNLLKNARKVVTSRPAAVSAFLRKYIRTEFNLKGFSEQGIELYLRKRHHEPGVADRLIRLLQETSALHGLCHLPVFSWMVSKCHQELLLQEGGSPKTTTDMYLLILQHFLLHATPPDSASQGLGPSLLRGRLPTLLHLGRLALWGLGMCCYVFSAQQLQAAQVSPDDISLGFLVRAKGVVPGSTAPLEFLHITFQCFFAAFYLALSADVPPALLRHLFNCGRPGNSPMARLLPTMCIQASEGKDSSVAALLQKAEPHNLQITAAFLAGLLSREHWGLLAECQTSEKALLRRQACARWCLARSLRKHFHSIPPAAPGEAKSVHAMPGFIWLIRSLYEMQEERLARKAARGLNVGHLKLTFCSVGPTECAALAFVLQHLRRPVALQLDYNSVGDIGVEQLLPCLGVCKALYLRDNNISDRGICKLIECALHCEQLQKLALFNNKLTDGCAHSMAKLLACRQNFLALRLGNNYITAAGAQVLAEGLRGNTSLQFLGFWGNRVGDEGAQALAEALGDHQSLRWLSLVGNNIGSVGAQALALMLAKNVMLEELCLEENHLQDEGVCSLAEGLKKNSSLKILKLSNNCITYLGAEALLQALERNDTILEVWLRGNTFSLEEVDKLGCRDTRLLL
T5 sequence (P11940 whole entry): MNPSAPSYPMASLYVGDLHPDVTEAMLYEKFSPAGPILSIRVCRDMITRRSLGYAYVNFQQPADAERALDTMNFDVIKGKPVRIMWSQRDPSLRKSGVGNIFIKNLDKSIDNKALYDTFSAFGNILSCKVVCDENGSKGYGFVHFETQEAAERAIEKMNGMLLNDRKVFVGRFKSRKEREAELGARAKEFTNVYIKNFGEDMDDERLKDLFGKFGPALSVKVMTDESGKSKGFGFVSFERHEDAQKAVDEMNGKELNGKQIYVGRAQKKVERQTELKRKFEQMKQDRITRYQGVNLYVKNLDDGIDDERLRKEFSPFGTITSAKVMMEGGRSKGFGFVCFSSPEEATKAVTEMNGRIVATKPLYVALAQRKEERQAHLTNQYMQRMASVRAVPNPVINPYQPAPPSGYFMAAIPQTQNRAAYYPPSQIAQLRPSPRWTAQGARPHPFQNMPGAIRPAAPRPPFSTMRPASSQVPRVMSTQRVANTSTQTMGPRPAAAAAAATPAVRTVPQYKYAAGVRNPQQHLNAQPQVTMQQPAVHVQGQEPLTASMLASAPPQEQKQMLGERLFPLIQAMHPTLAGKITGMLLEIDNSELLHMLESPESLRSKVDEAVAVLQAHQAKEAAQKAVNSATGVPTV

## N#C/C(=C/c1ccc(OCc2ccc(C(=O)O)cc2)cc1)C(=O)Nc1ccccc1
[1]
  IC50: 1.75 µM (active)
[2]
  IC50: 2.36 µM (active)
[3]
  IC50: 5.32 µM (active)

## Cc1ncsc1CCOC(=O)c1cccc([N+](=O)[O-])c1
[4]
  EC50: 1.68 µM (active)

## CCOC(=O)C1CCN(S(=O)(=O)c2ccc3c(c2)N(C(C)=O)CC(C)S3)CC1 (stereo not drawn)
[5]
  EC50: 7.03 µM (active)
[6]
  IC50: 19.7 µM (active)
[7]
  IC50: > 20 µM (inactive)
[8]
  EC50: > 20 µM (inactive)
[9]
  IC50: > 20 µM (inactive)
[10]
  IC50: > 20 µM (inactive)

## CCN1CCN(c2ccc(S(=O)(=O)N3CCCCC3)cc2NC(=O)Cc2ccccc2)CC1
[1]
  IC50: 3.97 µM (active)
[2]
  IC50: 5.57 µM (active)

## CCC1=C2CC[C@H]3C(=O)N(c4ccccc4)C(=O)[C@H]3[C@H]2[C@@]2(C)C(=O)N(CC(=O)OC)C(=O)N2C1=O
[11]
  AC50: 15.8 µM (inconclusive)

## CSC1=NC2=C(CCCC2)C2(CCCCC2)N1
[4]
  EC50: 5.96 µM (active)

## Cc1c(C(=O)N(Cc2cccs2)C2CCS(=O)(=O)C2)oc2ccccc12 (stereo not drawn)
[4]
  EC50: 1.68 µM (active)
[12]
  EC50: 2.11 µM (active)

## C[C@@H]1C=C[C@](Cc2ccccc2)(C(=O)NCCCNc2ncc(C(F)(F)F)cc2Cl)N1C(=O)c1ccccc1
[11]
  AC50: 3.98 µM (inconclusive)

## Cc1cc(/C=C2\SC(=O)N(C)C2=O)c(C)n1-c1ccc(S(N)(=O)=O)cc1
[1]
  IC50: 3.12 µM (active)
[2]
  IC50: 4.58 µM (active)

## CCOc1ccc(NC(=O)COC(=O)c2cccnc2)cc1
[13]
  IC50: 27.4 µM (active)

## Cc1ccc(-c2n[nH]c3c2C(c2ccccc2)N(c2ccc(C(=O)O)cc2)C3=O)cc1 (stereo not drawn)
[14]
  IC50: 30.4 µM (active)

## Cc1ccc(S(=O)(=O)CCSc2cccc(C(=O)Nc3ccccc3C(=O)O)c2)cc1
[13]
  IC50: 9.59 µM (active)
[15]
  CC50: 13.5 µM (active)
[14]
  IC50: 34.3 µM (active)
[16]
  IC50: > 66 µM (inactive)
[17]
  IC50: > 66 µM (inactive)

## COC(=O)C1=C(C)N(Cc2ccccc2)C(NCCCCO)=N[C@H]1c1ccccc1
[1]
  IC50: 2.27 µM (active)
[2]
  IC50: 5.13 µM (active)

## Cn1cccc1/C=C1\SC(=S)N(NC(=O)c2ccccc2O)C1=O
[14]
  IC50: 44.6 µM (active)

## COC(=O)[C@@H]1C[C@@]2(O)[C@@H](O)[C@@H](O)[C@@H](O)C[C@H]2N1CC1CCCCC1
[11]
  AC50: 12.6 µM (inconclusive)

## COc1ccc(OC)c(NC(=O)C2C3C=CC(C3)C2C(=O)NCc2ccccn2)c1 (stereo not drawn)
[14]
  IC50: 89.5 µM (active)

## Cc1nc(NCc2ccccc2)c2nc(-c3ccccc3)n(CCN(C)C)c2n1
[11]
  AC50: 12.6 µM (inconclusive)

## O=C(O)c1ccc2c(c1)C1C=CCC1C(c1cc3c(cc1Br)OCO3)N2 (stereo not drawn)
[14]
  IC50: 11 µM (active)

## Cc1cc(S(=O)(=O)Nc2cccc(O)c2)c(C)s1
[13]
  IC50: 14.6 µM (active)

## O=C(CN1CCCCC1)N=Nc1c(O)[nH]c2ccccc12
[4]
  EC50: 2.99 µM (active)

## CC(=O)c1cccc(NS(=O)(=O)c2ccc(NC(=O)N3CCCCC3)cc2)c1
[5]
  EC50: 3.33 µM (active)
[6]
  IC50: 14.3 µM (active)
[7]
  IC50: > 20 µM (inactive)
[8]
  EC50: 15.6 µM (active)
[9]
  IC50: 11.3 µM (inactive)
[10]
  IC50: > 20 µM (inactive)

## CC1(C)CC(N2CCOCC2)=CC(=[N+]2CCOCC2)C1
[1]
  IC50: 2.59 µM (active)
[2]
  IC50: 2.26 µM (active)
